{"source": "paper PMC5570900", "about": "“Exploiting a novel conformational switch to control innate immunity mediated by complement protein C3a” (Nature Communications, 2017)", "biological_target": "T1, C3aR (Rattus norvegicus, UniProt O55197)", "T1 construct": "characterize for the first time a C3aR-induced innate immune response in vivo in rats; from tissue; host or cells: live male Wistar rats, hind paw", "T1 sequence (O55197 1-473)": "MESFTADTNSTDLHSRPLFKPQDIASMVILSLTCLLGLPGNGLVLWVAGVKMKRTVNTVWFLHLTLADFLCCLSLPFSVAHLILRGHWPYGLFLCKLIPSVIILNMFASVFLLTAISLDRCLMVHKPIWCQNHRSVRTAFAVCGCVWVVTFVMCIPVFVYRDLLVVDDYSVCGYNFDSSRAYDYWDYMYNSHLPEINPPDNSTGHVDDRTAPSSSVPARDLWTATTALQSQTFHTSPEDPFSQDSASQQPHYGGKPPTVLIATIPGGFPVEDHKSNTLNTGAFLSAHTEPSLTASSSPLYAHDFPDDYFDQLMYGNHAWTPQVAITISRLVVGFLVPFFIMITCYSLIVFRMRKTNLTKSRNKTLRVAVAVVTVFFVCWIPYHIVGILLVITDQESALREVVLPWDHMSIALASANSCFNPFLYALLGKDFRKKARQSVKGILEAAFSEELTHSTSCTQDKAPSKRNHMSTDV", "assay": "Agonist-induced acute rat paw edema and immune responses", "type": "in vivo", "method": "Male Wistar rats (8–9 weeks) were injected with BR103 (3, 350 μg in 100 μL isotonic saline) into the plantar surface of both hind paw pads using a 30G needle. The inhibitor cromolyn (20 mg/kg in 5% DMSO) was injected subcutaneously 30 min before the agonist. The antagonist BR111 (6, 5–20 mg/kg in olive oil) was administered orally as a single dose 2 h before the agonist. Paw thickness and width were measured using digital calipers (WPI) at 0, 0.5, 2, 6 and 24 h after agonist BR103 administration. Hind paw size is expressed as % change in area from baseline after 0.5 h and then normalized against maximum swelling induced by agonist alone. Researchers were not blinded to treatments given.\nRat paw tissue was collected and fixed in 4% paraformaldehyde (pH 7.4) for 2 h in the cold room (4 °C). The rat paw tissue was then transferred into falcon tubes containing 30% sucrose solution in PBS and left overnight in the cold room. The next day, rat paw tissue was embedded with the Optimal Cutting Temperature compound (OCT, Sakura Finetek, USA) and stored in the −80 °C freezer before being used for making cryo-sections for histological analysis. Frozen sections of 5 microns were prepared using a cryostat-microtome (Leica Biosystems, Germany) and stained using standard protocols on the same day. In normal histological staining, such as with alcian blue and safranin O and hematoxylin and eosin (H&E), samples were briefly washed with distilled water before staining. In alcian blue and safranin O, samples were stained with 0.1% alcian blue (Sigma-Aldrich, USA) and 0.5% safranin O (Sigma-Aldrich, USA) before being mounted in mounting medium. In H&E, samples were stained with hematoxylin (Sigma-Aldrich, USA) and 0.1% eosin (Sigma-Aldrich, USA) before being mounted in mounting medium. In immunohistochemistry, samples were briefly rinsed with PBS to remove OCT and incubated with blocking medium (PBS, 0.1% triton X-100, 10% horse serum) for 1 h at room temperature. Samples were incubated with primary antibody medium (PBS, 4% horse serum, 1:200 histamine or 1:200 of tryptase or 1:150 ED1 or 1:200 ED2 antibodies) overnight at 4 °C. The next day, samples were washed with PBS and were incubated with the secondary antibody medium (PBS, 4% horse serum, detection antibody 1:1000) for 1 h at room temperature. The samples were briefly rinsed, dried and counterstained with DAPI (Invitrogen, Australia). Primary antibodies for histamine (Sigma-Aldrich, USA, H2403, monoclonal rabbit anti-rat IgG, 1: 200), tryptase (Abcam, Australia, ab2378, monoclonal mouse anti-rat IgG, 1:200), ED1 (Serotec, UK, MCA341R, monoclonal mouse anti-rat, 1:150), ED2 (Serotec, UK, MCA3424R, monoclonal mouse anti-rat, 1:200) were purchased from commercial sources. Secondary detection antibody was purchased from (Invitrogen, Australia). ED1 & ED2 positive cells were quantified using FIJI/ImageJ 1.42q software, U.S. National Institutes of Health, Bethesda, MD, USA[44]. All microscope images were obtained using an Olympus BX-51 upright microscope with Olympus DP-71 12Mp colour camera, utilizing DP Capture and DP Manager software packages (Olympus, Tokyo, Japan). Researchers who performed histological analysis and scoring were blinded to the sample identity.\nRat paw tissues were collected and immediately frozen with liquid nitrogen. The frozen rat paw tissue samples were weighed and crushed into smaller pieces with a mortar and pestle in liquid nitrogen. The crushed tissues were added to MPO buffer (50 mM potassium phosphate buffer, pH 6.0) to make up a concentration of 200 mg/mL and homogenized using Zirconium oxide beads (Next Advance, USA) and the Bullet Blender® homogeniser (Next Advance, USA). The homogenized tissues were then diluted to 100 mg/mL with the MPO buffer containing 1% hexadecyl trimethylamonium bromide (Sigma-Aldrich, USA) and underwent three cycles of freeze, thaw, and sonication. […]", "key": {"[1]": {"conditions": "350 µg per paw i.pl., 0.5 h, vs vehicle"}, "[2]": {"conditions": "male Wistar rats, 350 µg per paw, i.pl."}}, "data": [{"smiles": "Cc1[nH]c(C(c2ccccc2)c2ccccc2)nc1C(=O)N[C@@H](CCCNC(=N)N)C(=O)O", "note": "[Compound 3]", "values": [{"measurement": "Activated mast cells in paw tissue", "setting": "[1]", "value": "increased number of activated mast cells"}, {"measurement": "Histamine secretion in paw tissue", "setting": "[1]", "value": "increased histamine secretion"}, {"measurement": "Infiltration of ED1+ macrophages", "setting": "[1]", "value": "temporal increase in infiltration of inflammatory ED1^+ macrophages"}, {"measurement": "Tryptase-positive cells in paw tissue", "setting": "[1]", "value": "decreased tryptase-positive cells"}, {"measurement": "Resident ED2+ macrophage cell numbers", "setting": "350 µg per paw i.pl., vs vehicle", "value": "without significantly affecting resident ED2^+ macrophage cell numbers"}, {"measurement": "Proinflammatory gene expression (Il1β, Il6, Tnf, Ccl3, Mcp1) in paw", "setting": "350 µg/paw i.pl., 0.5, 6, 24 h, vs vehicle", "value": "induced the upregulation of many proinflammatory genes"}, {"measurement": "Myeloperoxidase (MPO) activity in paw", "setting": "350 µg/paw i.pl., 30 min, 6 h, 24 h, vs sham", "value": "increased myeloperoxidase (MPO) activity at 6 h, but not at 30 min or 24 h"}, {"measurement": "Paw edema induction", "setting": "[2]", "value": "induced an acute inflammatory edema"}, {"measurement": "Time of peak paw swelling", "setting": "[2]", "value": 0.5, "unit": "h"}]}]}
